Experimental findings from patent publication US20240067668A1, “HETEROARYL DERIVATIVE COMPOUND AND USE THEREOF” (VORONOI INC., priority 2020, published 2024) are described below.

For test [1], the system named is BaF3-EGFR (Del19/T790M/C797S) cells. The test can be described thus: Inhibitory activity on Ba/F3 cell proliferation (CellTiter-Glo, 72 hours). The note with it: Ba/F3 cells expressing EGFR Del19/T790M/C797S. Format: cell-based. The protocol:
(§1) The following experiments were performed to evaluate the inhibitory activity of the compound represented by Chemical Formula 1 according to the present invention on the proliferation of Ba/F3 cells expressing EGFR mutants.
(§2) BaF3-EGFR (WT) and BaF3-EGFR (Del19/T790M/C797S) cells were seeded in a clear bottom white 96-well plate at a density of 3×10^3/100 μl/well, and then 0.5 μl/well of the culture medium, containing the compounds at 12 concentrations (0.00001-2 mM) serially diluted in 3 folds and the DMSO control, was added to a final concentration of 0.00005-10 μM, followed by culturing in a 37° C. CO2 incubator for 72 hours. After 72 hours, the plates treated with the compounds were taken out, treated with 100 μl/well of CellTiter-Glo® 2.0 Assay (Promega) solution, and mixed well. After mixing well at room temperature for about 10 minutes, […] was measured using a microplate reader. As to Data, GI50 (μM) values were calculated using GraphPad Prism 8.3.0 (GraphPad software Inc., San Diego) as percentages in proportion to vehicle-based treated cells. The result values were calculated as a cell growth rate (%) compared to the control group. A graph was created using the GraphPad Prism version 5.0 program, and GI50 (μM) values were calculated.
For orientation: In ATP-based viability assays light output follows the ATP content of the culture.

The subject of the next test is BaF3-EGFR (WT) cells. Described as above. In kind it is cell-based. The note with it: Ba/F3 cells expressing EGFR WT. The protocol: as §1, §2
The target of another test is EGFR Del19/T790M/C797S (Homo sapiens, UniProt P00533, C797S/T790M, form not given). The test can be described thus: Enzyme IC50, EGFR Del19/T790M/C797S. In kind it is biochemical.
Sequence of EGFR Del19/T790M/C797S (P00533 25-1210 T790M/C797S, form open): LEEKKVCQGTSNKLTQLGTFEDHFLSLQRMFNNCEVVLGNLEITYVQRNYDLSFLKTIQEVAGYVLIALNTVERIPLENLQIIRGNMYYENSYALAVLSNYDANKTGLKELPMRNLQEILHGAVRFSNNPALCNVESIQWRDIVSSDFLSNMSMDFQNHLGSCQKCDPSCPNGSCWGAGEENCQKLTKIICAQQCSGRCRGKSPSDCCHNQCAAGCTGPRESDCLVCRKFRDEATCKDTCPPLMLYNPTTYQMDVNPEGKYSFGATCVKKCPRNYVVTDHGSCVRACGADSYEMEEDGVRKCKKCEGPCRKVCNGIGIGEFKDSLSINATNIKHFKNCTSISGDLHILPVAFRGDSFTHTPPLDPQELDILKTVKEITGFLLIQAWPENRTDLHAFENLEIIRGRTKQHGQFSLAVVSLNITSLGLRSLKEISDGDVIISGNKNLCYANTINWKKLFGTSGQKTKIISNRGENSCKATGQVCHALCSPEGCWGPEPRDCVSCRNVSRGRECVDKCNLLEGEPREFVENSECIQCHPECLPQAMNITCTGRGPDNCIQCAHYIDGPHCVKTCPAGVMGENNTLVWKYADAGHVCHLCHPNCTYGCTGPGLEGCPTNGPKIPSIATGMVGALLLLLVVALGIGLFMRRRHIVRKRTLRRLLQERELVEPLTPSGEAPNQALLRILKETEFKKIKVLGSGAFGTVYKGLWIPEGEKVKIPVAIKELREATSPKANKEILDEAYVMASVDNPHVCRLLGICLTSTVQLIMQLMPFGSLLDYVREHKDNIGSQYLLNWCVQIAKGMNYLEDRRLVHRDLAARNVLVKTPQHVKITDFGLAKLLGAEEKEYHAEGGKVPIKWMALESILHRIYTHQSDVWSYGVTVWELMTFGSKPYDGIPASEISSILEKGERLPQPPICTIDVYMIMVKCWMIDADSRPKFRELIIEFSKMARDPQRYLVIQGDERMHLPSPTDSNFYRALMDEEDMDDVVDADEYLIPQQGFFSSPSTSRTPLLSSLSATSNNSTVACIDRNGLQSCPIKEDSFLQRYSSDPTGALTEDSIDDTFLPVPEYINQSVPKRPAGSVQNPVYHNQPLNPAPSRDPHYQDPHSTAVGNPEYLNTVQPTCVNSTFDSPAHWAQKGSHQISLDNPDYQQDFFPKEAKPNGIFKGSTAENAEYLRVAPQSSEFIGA

One may read the GI50 as the concentration at which growth is held to half of that of the control. A high value points to lower sensitivity of the cells. Broadly, the IC50 is the concentration at which inhibition is half-maximal.

As for `COc1cc(N2CC3(COC3)C2)c(-c2cnn(C)c2)cc1Nc1nc(Nc2ccc3nccnc3c2P(C)(C)=O)c2cc[nH]c2n1` [Example 29, (6-((2-((2-methoxy-5-(1-methyl-1H-pyrazol-4-yl)-4-(2-oxa-6-azaspiro[3.3]heptan-6-yl)phenyl)amino)-7H-pyrrolo[2,3-d]pyrimidin-4-yl)amino)quinoxalin-5-yl)dimethyl-phosphine oxide], the 50% growth inhibitory concentration (GI50) (in test [1]; in the test with BaF3-EGFR (WT) cells) was > 0.1 µM in each case. At EGFR Del19/T790M/C797S, the IC50 is ≤ 0.05 µM.
As to `C=Cc1cc(Nc2nc(Nc3ccc4nccnc4c3P(C)(C)=O)c3cc[nH]c3n2)c(OC)cc1N1CCN(C)CC1` [Example 82, (6-((2-((2-methoxy-4-(4-methylpiperazin-1-yl)-5-vinylphenyl)amino)-7H-pyrrolo[2,3-d]pyrimidin-4-yl)amino)quinoxalin-5-yl)dimethyl-phosphine oxide], the GI50 (in test [1]; with BaF3-EGFR (WT) cells) was > 0.1 µM throughout. Moreover, the IC50 against EGFR Del19/T790M/C797S was ≤ 0.05 µM.
As to `COc1cc(N2C[C@@H](C)O[C@@H](C)C2)c(-c2cnn(C)c2)cc1Nc1nc(Nc2ccc3nccnc3c2P(C)(C)=O)c2cc[nH]c2n1` [Example 23, (6-((2-((4-((2s, 6R)-2,6-dimethyl-morpholino)-2-methoxy-5-(1-methyl-1H-pyrazol-4-yl)phenyl)amino)-7H-pyrrolo[2,3-d]pyrimidin-4-yl)amino)quinoxalin-5-yl)dimethyl-phosphine oxide], the GI50 in test [1] is ≤ 0.05 µM; in the test with BaF3-EGFR (WT) cells it was > 0.1 µM. In addition, the IC50 against EGFR Del19/T790M/C797S was ≤ 0.05 µM.
For `COc1cc(N2CCC3(CC2)COC3)c(-c2cnn(C)c2)cc1Nc1nc(Nc2ccc3nccnc3c2P(C)(C)=O)c2cc[nH]c2n1` [Example 32, (6-((2-((2-methoxy-5-(1-methyl-1H-pyrazol-4-yl)-4-(2-oxa-7-azaspiro[3.5]nonane-7-yl)phenyl)amino)-7H-pyrrolo[2,3-d]pyrimidin-4-yl)amino)quinoxalin-5-yl)dimethyl-phosphine oxide], the GI50 was ≤ 0.05 µM in test [1] and > 0.1 µM in the test with BaF3-EGFR (WT) cells. For the same molecule, the 50% inhibitory concentration (IC50) against EGFR Del19/T790M/C797S is ≤ 0.05 µM.
For the molecule `CCn1cc(-c2cc(Nc3nc(Nc4ccc5nccnc5c4P(C)(C)=O)c4cc[nH]c4n3)c(OC)cc2N2CCN(C)CC2)cn1` [Example 47, (6-((2-((5-(1-ethyl-1H-pyrazol-4-yl)-2-methoxy-4-(4-methyl-piperazin-1-yl)phenyl)amino)-7H-pyrrolo[2,3-d]pyrimidin-4-yl)amino)quinoxalin-5-yl)dimethyl-phosphine oxide], the GI50 is ≤ 0.05 µM in test [1] and > 0.1 µM with BaF3-EGFR (WT) cells. Also, at EGFR Del19/T790M/C797S, the half-inhibitory concentration (IC50) was ≤ 0.05 µM.
As to `CN1CCN(c2c(-c3cnn(C)c3)cc(Nc3nc(Nc4ccc5nccnc5c4P(C)(C)=O)c4cc[nH]c4n3)c3c2CCO3)CC1` [Example 116, dimethyl (6-((2-((5-(1-methyl-1H-pyrazol-4-yl)-4-(4-methyl-piperazin-1-yl)-2,3-dihydrobenzo-furan-7-yl)amino)-7H-pyrrolo[2,3-d]pyrimidin-4-yl)amino)quinoxalin-5-yl)phosphine oxide], the GI50 in test [1] is ≤ 0.05 µM; with BaF3-EGFR (WT) cells it was > 0.1 µM. In addition, at EGFR Del19/T790M/C797S, the IC50 is ≤ 0.05 µM.
As for `COc1cc(N2CCN(C)CC2)c(-c2cnc3ccccc3c2)cc1Nc1nc(Nc2ccc3nccnc3c2P(C)(C)=O)c2cc[nH]c2n1` [Example 71, (6-((2-((2-methoxy-4-(4-methylpiperazin-1-yl)-5-(quinolin-3-yl)phenyl)amino)-7H-pyrrolo[2,3-d]pyrimidin-4-yl)amino)quinoxalin-5-yl)dimethyl-phosphine oxide], the GI50 (in test [1]; with BaF3-EGFR (WT) cells) was > 0.1 µM each time. Besides, at EGFR Del19/T790M/C797S, the IC50 was ≤ 0.05 µM.
Turning to `C=CC(=O)Nc1cc(Nc2nc(Nc3ccc4nccnc4c3P(C)(C)=O)c3cc[nH]c3n2)c(OC)cc1N1CCN(C)CC1` [Example 73, N-(5-((4-((5-(dimethyl-phosphoryl)quinoxalin-6-yl)amino)-7H-pyrrolo[2,3-d]pyrimidin-2-yl)amino)-4-methoxy-2-(4-methylpiperazin-1-yl)phenyl) acrylamide], the GI50 was > 0.1 µM in test [1] and 0.05 to 0.1 µM in the test on BaF3-EGFR (WT) cells. Besides, at EGFR Del19/T790M/C797S, the IC50 was ≤ 0.05 µM.
As for `COc1cc(N2CCOCC2)c(-c2cnn(C)c2)cc1Nc1nc(Nc2ccc3nccnc3c2P(C)(C)=O)c2cc[nH]c2n1` [Example 25, (6-((2-((2-methoxy-5-(1-methyl-1H-pyrazol-4-yl)-4-morpholino-phenyl)amino)-7H-pyrrolo[2,3-d]pyrimidin-4-yl)amino)quinoxalin-5-yl)dimethyl-phosphine oxide], the GI50 in test [1] was ≤ 0.05 µM; in the test with BaF3-EGFR (WT) cells, > 0.1 µM. Moreover, on EGFR Del19/T790M/C797S, the IC50 was ≤ 0.05 µM.
In the case of `CN1CCN(C2CCN(c3c(-c4cnn(C)c4)cc(Nc4nc(Nc5ccc6nccnc6c5P(C)(C)=O)c5cc[nH]c5n4)c4c3CCO4)CC2)CC1` [Example 117, dimethyl (6-((2-((5-(1-methyl-1H-pyrazol-4-yl)-4-(4-(4-methylpiperazin-1-yl)piperidin-1-yl)-2,3-dihydrobenzo-furan-7-yl)amino)-7H-pyrrolo[2,3-d]pyrimidin-4-yl)amino)quinoxalin-5-yl)phosphine oxide], the GI50 in test [1] is ≤ 0.05 µM; in the test with BaF3-EGFR (WT) cells, > 0.1 µM. In addition, at EGFR Del19/T790M/C797S, the IC50 is ≤ 0.05 µM.
`Cn1cc(-c2ccc(OCC(F)(F)F)c(Nc3nc(Nc4ccc5nccnc5c4P(C)(C)=O)c4cc[nH]c4n3)c2)cn1` [Example 5, dimethyl (6-((2-((5-(1-methyl-1H-pyrazol-4-yl)-2-(2,2,2-trifluoroethoxy)phenyl)amino)-7H-pyrrolo[2,3-d]pyrimidin-4-yl)amino)quinoxalin-5-yl)phosphine oxide]: the GI50 was > 0.1 µM in test [1] and 0.05 to 0.1 µM in the test with BaF3-EGFR (WT) cells. At EGFR Del19/T790M/C797S, this molecule returned an IC50 of 0.05 to 0.1 µM.
As for `COc1cc(N2C[C@H]3C[C@@H]2CO3)c(-c2cnn(C)c2)cc1Nc1nc(Nc2ccc3nccnc3c2P(C)(C)=O)c2cc[nH]c2n1` [Example 27], the figures for the GI50 (in test [1]; with BaF3-EGFR (WT) cells) were ≤ 0.05 µM and > 0.1 µM, respectively. Besides, the IC50 against EGFR Del19/T790M/C797S was ≤ 0.05 µM.
Regarding `COc1cc(N2CCC3(CCN(CC4(F)CC4)CC3)CC2)c(-c2cnn(C)c2)cc1Nc1nc(Nc2ccc3nccnc3c2P(C)(C)=O)c2cc[nH]c2n1` [Example 114, (6-((2-((4-(9-((1-fluorocyclo-propyl)methyl)-3,9-diazaspiro[5.5]undecan-3-yl)-2-methoxy-5-(1-methyl-1H-pyrazol-4-yl)phenyl)amino)-7H-pyrrolo[2,3-d]pyrimidin-4-yl)amino)quinoxalin-5-yl)dimethyl-phosphine oxide], the GI50 was ≤ 0.05 µM in test [1] and > 0.1 µM in the test on BaF3-EGFR (WT) cells. For the same molecule, at EGFR Del19/T790M/C797S, the IC50 was ≤ 0.05 µM.
Consider `COc1cc(N2CCN(C)CC2)c(C2CC2)cc1Nc1nc(Nc2ccc3nccnc3c2P(C)(C)=O)c2cc[nH]c2n1` [Example 83, (6-((2-((5-cyclopropyl-2-methoxy-4-(4-methylpiperazin-1-yl)phenyl)amino)-7H-pyrrolo[2,3-d]pyrimidin-4-yl)amino)quinoxalin-5-yl)dimethyl-phosphine oxide], for which the GI50 (in test [1]; in the test with BaF3-EGFR (WT) cells) was > 0.1 µM each time. The 50% inhibitory concentration (IC50) at EGFR Del19/T790M/C797S was ≤ 0.05 µM.
`C[C@@H]1CN(c2cc(OCC(F)(F)F)c(Nc3nc(Nc4ccc5nccnc5c4P(C)(C)=O)c4cc[nH]c4n3)cc2-c2cnn(C)c2)C[C@H](C)O1` [Example 10, (6-((2-((4-((2R, 6S)-2,6-dimethyl-morpholino)-5-(1-methyl-1H-pyrazol-4-yl)-2-(2,2,2-trifluoroethoxy)phenyl)amino)-7H-pyrrolo[2,3-d]pyrimidin-4-yl)amino)quinoxalin-5-yl)dimethyl phosphine oxide]: the GI50 in test [1] is ≤ 0.05 µM; in the test with BaF3-EGFR (WT) cells, > 0.1 µM.
For the molecule `COc1cc(N2CCC(N3CCN(C)CC3)CC2)c(C)cc1Nc1nc(Nc2cnc3ccccc3c2P(C)(C)=O)c2cc[nH]c2n1` [Example 90, (3-((2-((2-methoxy-5-methyl-4-(4-(4-methylpiperazin-1-yl)piperidin-1-yl)phenyl)amino)-7H-pyrrolo[2,3-d]pyrimidin-4-yl)amino)quinolin-4-yl)dimethyl-phosphine oxide], the GI50 (in test [1]; in the test with BaF3-EGFR (WT) cells) was > 0.1 µM throughout.
As to `COc1cc(N2CCC(N3CCN(C)CC3)CC2)c(F)cc1Nc1nc(Nc2ccc3nccnc3c2P(C)(C)=O)c2cc[nH]c2n1` [Example 66, (6-((2-((5-fluoro-2-methoxy-4-(4-(4-methylpiperazin-1-yl)piperidin-1-yl)phenyl)amino)-7H-pyrrolo[2,3-d]pyrimidin-4-yl)amino)quinoxalin-5-yl)dimethyl-phosphine oxide], the GI50 (in test [1]; in the test with BaF3-EGFR (WT) cells) was > 0.1 µM in each case.
On to `COc1cc(N2CCN(C)CC2)c(-c2cnn(C)c2)cc1Nc1nc(Nc2ccc3nccnc3c2P(C)(C)=O)c2c(Cl)c[nH]c2n1` [Example 51, (6-((5-chloro-2-((2-methoxy-5-(1-methyl-1H-pyrazol-4-yl)-4-(4-methylpiperazin-1-yl)phenyl)amino)-7H-pyrrolo[2,3-d]pyrimidin-4-yl)amino)quinoxalin-5-yl)dimethyl-phosphine oxide], for which the concentration for 50% growth inhibition (GI50) is 0.05 to 0.1 µM in test [1] and > 0.1 µM in the test with BaF3-EGFR (WT) cells.
